Values of other authors in patent US6399785B1, “Multiply-substituted fullerenes” (C-Sixty, Inc., priority 1995, dated 2002).
Read-outs that look alike come from different tables or passages of the source.

Assays:
HIV [1] = conditions: H9 cells chronically infected with HIV, in vitro
HIV [2] = conditions: human PBMC acutely infected with HIV, in vitro

Substance: bis (monosuccinimide) derivative of p,p′-bis (2-aminoethyl) diphenyl C60
- antiviral activity (HIV [1]): showed antiviral activity
- antiviral activity (HIV [2]): showed antiviral activity
